Reference: PubChem BioAssay AID2060329 (Molecular Pharmacology Branch, DTP, NCI, 2025)

Tested on: MCF7 multi-cell spheroids with HUVEC/MSC, viability
Test: Anticancer human tumor MCF7 cell line growth inhibition [IpAb];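 note: spheroids exposed to agents for seven days before readout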
Settings: for IC50: curve of first compound; for viability, T/C: stronger effect = lower value
Method in brief: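 Combinations with ipatasertib or abemaciclib were tested on tumour spheroids holding HUVEC (25%) and MSC (15%) alongside 60% malignant cells. Top concentration was at or near clinical Cmax (10 microM if undefined), descending in half-log steps.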

[1] = second compound 0.01 µM, first compound 0.00316 µM
[2] = second compound 0.01 µM, first compound 0.01 µM
[3] = second compound 0.01 µM, first compound 0.0316 µM
[4] = second compound 0.01 µM, first compound 0.1 µM
[5] = second compound 0.0316 µM, first compound 0.00316 µM
[6] = second compound 0.0316 µM, first compound 0.01 µM
[7] = second compound 0.0316 µM, first compound 0.0316 µM
[8] = second compound 0.0316 µM, first compound 0.1 µM
[9] = second compound 0.1 µM, first compound 0.00316 µM
[10] = second compound 0.1 µM, first compound 0.01 µM
[11] = second compound 0.1 µM, first compound 0.0316 µM
[12] = second compound 0.1 µM, first compound 0.1 µM
[13] = second compound 0.316 µM, first compound 0.00316 µM
[14] = second compound 0.316 µM, first compound 0.01 µM
[15] = second compound 0.316 µM, first compound 0.0316 µM
[16] = second compound 0.316 µM, first compound 0.1 µM
[17] = second compound 1 µM, first compound 0.00316 µM
[18] = second compound 1 µM, first compound 0.01 µM
[19] = second compound 1 µM, first compound 0.0316 µM
[20] = second compound 1 µM, first compound 0.1 µM
[21] = second compound 0.01 µM, first compound 0.316 µM
[22] = second compound 0.01 µM, first compound 1 µM
[23] = second compound 0.01 µM, first compound 3.16 µM
[24] = second compound 0.01 µM, first compound 10 µM
[25] = second compound 0.0316 µM, first compound 0.316 µM
[26] = second compound 0.0316 µM, first compound 1 µM
[27] = second compound 0.0316 µM, first compound 3.16 µM
[28] = second compound 0.0316 µM, first compound 10 µM
[29] = second compound 0.1 µM, first compound 0.316 µM
[30] = second compound 0.1 µM, first compound 1 µM
[31] = second compound 0.1 µM, first compound 3.16 µM
[32] = second compound 0.1 µM, first compound 10 µM
[33] = second compound 0.316 µM, first compound 0.316 µM
[34] = second compound 0.316 µM, first compound 1 µM
[35] = second compound 0.316 µM, first compound 3.16 µM
[36] = second compound 0.316 µM, first compound 10 µM
[37] = second compound 1 µM, first compound 0.316 µM
[38] = second compound 1 µM, first compound 1 µM
[39] = second compound 1 µM, first compound 3.16 µM
[40] = second compound 1 µM, first compound 10 µM

Row | Structure (SMILES) | IC50 (second compound 0.01 µM) | IC50 (second compound 0.0316 µM) | IC50 (second compound 0.1 µM) | IC50 (second compound 0.316 µM) | IC50 (second compound 1 µM) | viability, T/C [3] | viability, T/C [4] | viability, T/C [7] | viability, T/C [8] | viability, T/C [11] | viability, T/C [12] | viability, T/C [15] | viability, T/C [16] | viability, T/C [19] | viability, T/C [20] | viability, T/C [21] | viability, T/C [22] | viability, T/C [25] | viability, T/C [26] | viability, T/C [29] | also measured
1 | CC(C)n1nc(-c2ccc3oc(N)nc3c2)c2c(N)ncnc21 + CCN1CCN(Cc2ccc(Nc3ncc(F)c(-c4cc(F)c5nc(C)n(C(C)C)c5c4)n3)nc2)CC1 | 10.6 nM | 7.31 nM | 7.34 nM | 14.5 nM | 25.6 nM | 21.6% | 11.9% | 21% | 13.8% | 19.3% | 16.8% | 34.4% | 28.7% | 47.8% | 41.6% |  |  |  |  |  | viability, T/C (second compound 0.01 µM, first compound 0.000316 µM): 90.9%; viability, T/C (second compound 0.01 µM, first compound 0.001 µM): 103%; viability, T/C [1]: 71.1%; viability, T/C [2]: 55.6%; viability, T/C (second compound 0.0316 µM, first compound 0.000316 µM): 89.3%; viability, T/C (second compound 0.0316 µM, first compound 0.001 µM): 90.2%; viability, T/C [5]: 73.3%; viability, T/C [6]: 40.8%; viability, T/C (second compound 0.1 µM, first compound 0.000316 µM): 95.4%; viability, T/C (second compound 0.1 µM, first compound 0.001 µM): 94%; viability, T/C [9]: 69.2%; viability, T/C [10]: 44.6%; viability, T/C (second compound 0.316 µM, first compound 0.000316 µM): 116%; viability, T/C (second compound 0.316 µM, first compound 0.001 µM): 101%; viability, T/C [13]: 78.2%; viability, T/C [14]: 58.8%; viability, T/C (second compound 1 µM, first compound 0.000316 µM): 102%; viability, T/C (second compound 1 µM, first compound 0.001 µM): 83.1%; viability, T/C [17]: 80.6%; viability, T/C [18]: 55.3%
2 | CC1(C)CCC(CN2CCN(c3ccc(C(=O)NS(=O)(=O)c4ccc(NCC5CCOCC5)c([N+](=O)[O-])c4)c(Oc4cnc5[nH]ccc5c4)c3)CC2)=C(c2ccc(Cl)cc2)C1 + CCN1CCN(Cc2ccc(Nc3ncc(F)c(-c4cc(F)c5nc(C)n(C(C)C)c5c4)n3)nc2)CC1 | 7020 nM | 7010 nM | 6630 nM | 6290 nM | 5390 nM | 107% | 93.2% | 97.8% | 94.8% | 107% | 118% | 99.5% | 117% | 105% | 107% | 109% | 96.8% | 94.9% | 91.5% | 102% | viability, T/C [23]: 111%; viability, T/C [24]: 26.4%; viability, T/C [27]: 104%; viability, T/C [28]: 29.2%; viability, T/C [30]: 106%; viability, T/C [31]: 104%; viability, T/C [32]: 20.1%; viability, T/C [33]: 116%; viability, T/C [34]: 104%; viability, T/C [35]: 98.6%; viability, T/C [36]: 17%; viability, T/C [37]: 101%; viability, T/C [38]: 92.7%; viability, T/C [39]: 87.7%; viability, T/C [40]: 9.36%
3 | CCCS(=O)(=O)Nc1ccc(F)c(C(=O)c2c[nH]c3ncc(-c4ccc(Cl)cc4)cc23)c1F + CCN1CCN(Cc2ccc(Nc3ncc(F)c(-c4cc(F)c5nc(C)n(C(C)C)c5c4)n3)nc2)CC1 | > 10000 nM | > 10000 nM | > 10000 nM | > 10000 nM | 8100 nM | 97.8% | 106% | 89.6% | 96.7% | 101% | 96.8% | 98.3% | 103% | 101% | 94.7% | 97.5% | 90.1% | 91.7% | 91.9% | 100% | viability, T/C [23]: 93.4%; viability, T/C [24]: 84%; viability, T/C [27]: 85.3%; viability, T/C [28]: 70.1%; viability, T/C [30]: 99.4%; viability, T/C [31]: 88.4%; viability, T/C [32]: 77.3%; viability, T/C [33]: 94%; viability, T/C [34]: 101%; viability, T/C [35]: 93.1%; viability, T/C [36]: 76.5%; viability, T/C [37]: 92.5%; viability, T/C [38]: 87.8%; viability, T/C [39]: 72.9%; viability, T/C [40]: 44.5%
4 | COc1c(OCCCN2CCOCC2)ccc2c3n(c(=NC(=O)c4cnc(N)nc4)nc12)CCN3 + CCN1CCN(Cc2ccc(Nc3ncc(F)c(-c4cc(F)c5nc(C)n(C(C)C)c5c4)n3)nc2)CC1 | 42.3 nM | 29.8 nM | 29.7 nM | 42 nM | 57.1 nM | 61.3% | 27.7% | 46.5% | 22.8% | 48.9% | 23.4% | 56.5% | 36.5% | 59% | 41% | 9.2% | 11.6% | 7.69% | 11.1% | 8.37% | viability, T/C [1]: 101%; viability, T/C [2]: 79.7%; viability, T/C [5]: 91.2%; viability, T/C [6]: 82.2%; viability, T/C [9]: 99.2%; viability, T/C [10]: 78.8%; viability, T/C [30]: 9.47%; viability, T/C [13]: 93.1%; viability, T/C [14]: 73.5%; viability, T/C [33]: 17.9%; viability, T/C [34]: 15%; viability, T/C [17]: 94%; viability, T/C [18]: 66.7%; viability, T/C [37]: 36.6%; viability, T/C [38]: 18%
5 | Cc1nc(NC(=O)N2CCCC2C(N)=O)sc1-c1ccnc(C(C)(C)C(F)(F)F)c1 (stereo not given) + CCN1CCN(Cc2ccc(Nc3ncc(F)c(-c4cc(F)c5nc(C)n(C(C)C)c5c4)n3)nc2)CC1 | 3360 nM | 2430 nM | 2690 nM | 3500 nM | 2730 nM | 104% | 93.5% | 112% | 108% | 106% | 96.6% | 93% | 105% | 92.3% | 80.2% | 94.8% | 72.6% | 91% | 63.4% | 76% | viability, T/C [23]: 52.2%; viability, T/C [24]: 23.8%; viability, T/C [27]: 48.7%; viability, T/C [28]: 14.2%; viability, T/C [30]: 59.4%; viability, T/C [31]: 56.5%; viability, T/C [32]: 27.3%; viability, T/C [33]: 80.7%; viability, T/C [34]: 61.4%; viability, T/C [35]: 58.9%; viability, T/C [36]: 34%; viability, T/C [37]: 65.6%; viability, T/C [38]: 69.4%; viability, T/C [39]: 48%; viability, T/C [40]: 33.1%
